Assays:
algae = test: Algae growth inhibition (EC50); assay type: cell-based
fish = test: Fish mortality (LC50); assay type: in vivo
[1] = Eye irritation categorisation; settings: hazard code
Vapor pressure = assay type: physicochemical; settings: at 20° C.
[2] = Saturated vapor concentration; assay type: physicochemical
[3] = Sensitization classification

SMILES	effective concentration of 50% growth inhabitation (EC50) for algae (algae)	lethal concentration of 50% mortality (LC50) for fish (fish)	eye irritation category [1]	dermal irritation (Dermal irritation)	vapor pressure (Vapor pressure)	vapor pressure (Vapor pressure; listed as 2-pentanone oxime)	saturated vapor concentration [2]	saturated vapor concentration relative to that of MEKO ([2]; 2-PO versus MEKO)	sensitizer classification [3]
CCC/C(C)=N\O [2-PO, 2-pentanone oxime]	88 ppm	greater than 100 ppm	serious eye irritation (code H319)	no irritation	about 1.60 mm Hg	about 2.14 hPa	300 ppm	less than 25%	not a sensistizer
C/C(=N/O)C(C)C [3-methyl-2-butanone oxime]					less than 0.975 mm Hg				
CCC(C)=NO [MEKO, methyl ethyl ketoxime, reference compound]	7 ppm	48 ppm			2.00 mm Hg		1350 ppm		
CC(CC(C)C)=NO [MIBKO, methyl isobutyl ketoxime]					about 0.13 hPa				
